The AC50 is the concentration at which the activity in the assay is half-maximal. For orientation: EC50 means the concentration giving half of the maximal effect. Broadly, the CC50 is the concentration that lowers cell viability or growth by half. By IC50 is commonly meant the midpoint of a concentration-inhibition curve.

This note sets out measurements from ChEMBL document CHEMBL1201862, “PubChem BioAssay data set” (2004).

The target in assay [1] is Cytochrome P450 3A4 (Homo sapiens, UniProt P08684). The following applies: Potency.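 Further: confirmatory qHTS run detecting inhibitors and substrates of CYP3A4.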
In assay [2] the target is T1, Replicative DNA helicase DnaB (Mycobacterium tuberculosis, UniProt P9WMR3).
T1 sequence (P9WMR3 whole entry): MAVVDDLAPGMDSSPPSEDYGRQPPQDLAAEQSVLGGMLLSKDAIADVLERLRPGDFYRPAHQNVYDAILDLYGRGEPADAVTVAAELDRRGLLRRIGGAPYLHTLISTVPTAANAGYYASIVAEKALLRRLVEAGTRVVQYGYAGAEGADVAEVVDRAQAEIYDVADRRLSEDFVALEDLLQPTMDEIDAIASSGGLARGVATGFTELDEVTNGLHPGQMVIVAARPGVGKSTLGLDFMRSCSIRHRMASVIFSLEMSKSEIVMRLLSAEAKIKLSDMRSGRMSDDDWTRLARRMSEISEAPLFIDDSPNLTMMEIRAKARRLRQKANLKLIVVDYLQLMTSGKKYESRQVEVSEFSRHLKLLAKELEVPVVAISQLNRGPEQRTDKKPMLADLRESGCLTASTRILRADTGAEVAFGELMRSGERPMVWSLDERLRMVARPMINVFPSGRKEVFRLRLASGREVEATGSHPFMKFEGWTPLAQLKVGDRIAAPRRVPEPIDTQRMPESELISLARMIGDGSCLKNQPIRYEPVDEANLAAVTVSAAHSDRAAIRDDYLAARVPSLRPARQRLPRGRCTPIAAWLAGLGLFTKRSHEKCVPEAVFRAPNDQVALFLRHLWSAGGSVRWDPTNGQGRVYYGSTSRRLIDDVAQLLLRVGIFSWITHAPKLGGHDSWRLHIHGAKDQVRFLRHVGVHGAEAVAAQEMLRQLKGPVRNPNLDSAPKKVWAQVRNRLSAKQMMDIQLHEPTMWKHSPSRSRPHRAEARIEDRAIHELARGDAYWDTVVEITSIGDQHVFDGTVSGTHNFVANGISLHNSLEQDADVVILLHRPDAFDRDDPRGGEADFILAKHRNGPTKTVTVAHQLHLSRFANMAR
Briefly: DnaB intein splicing inhibitors, dose response, biochemical, cell-free fluorescence (AID 449749). Format: functional.

Assay [3] deals with T2, Protein RecA (Mycobacterium tuberculosis, UniProt P9WHJ3).
T2 sequence (P9WHJ3 whole entry): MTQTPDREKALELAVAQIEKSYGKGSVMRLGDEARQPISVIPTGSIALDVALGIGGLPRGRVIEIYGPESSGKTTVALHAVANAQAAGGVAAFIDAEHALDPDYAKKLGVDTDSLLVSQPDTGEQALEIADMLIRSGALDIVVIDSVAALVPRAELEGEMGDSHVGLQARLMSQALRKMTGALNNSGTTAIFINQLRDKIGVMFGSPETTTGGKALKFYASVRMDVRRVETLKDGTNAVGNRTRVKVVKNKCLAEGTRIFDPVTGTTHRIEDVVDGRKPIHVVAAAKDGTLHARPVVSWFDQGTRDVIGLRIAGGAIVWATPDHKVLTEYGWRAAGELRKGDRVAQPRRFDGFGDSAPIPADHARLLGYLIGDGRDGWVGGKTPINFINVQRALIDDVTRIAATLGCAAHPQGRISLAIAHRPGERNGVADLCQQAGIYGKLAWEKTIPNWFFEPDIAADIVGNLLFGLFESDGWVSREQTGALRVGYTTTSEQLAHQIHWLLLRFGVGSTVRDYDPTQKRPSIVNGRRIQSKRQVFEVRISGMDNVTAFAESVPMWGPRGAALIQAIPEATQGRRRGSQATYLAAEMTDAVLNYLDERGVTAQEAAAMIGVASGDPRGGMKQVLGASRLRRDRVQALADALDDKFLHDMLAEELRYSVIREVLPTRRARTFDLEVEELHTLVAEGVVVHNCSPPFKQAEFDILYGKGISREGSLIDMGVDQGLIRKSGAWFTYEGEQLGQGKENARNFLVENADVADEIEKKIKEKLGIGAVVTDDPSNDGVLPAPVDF
Briefly: Fluorescence Cell-Free Homogeneous Dose Retest to Identify Inhibitors of RecA-Intein Splicing Activity. [Related pubchem assays (depositor defined):AID2097, AID2223, AID489010, AID492950]. In kind it is functional.

A short description of assay [4]: THP-1 cell cytotoxicity, dose response, cytotoxicity control for non-replicating M. tuberculosis project (AID 489025). In kind it is functional.
In assay [5] the target is G-protein coupled receptor 55 (Homo sapiens, UniProt Q9Y2T6). Briefly: inhibition of LPI-stimulated GPR55 beta-arrestin translocation – imaging, U2OS, beta-arrestin-GFP, LPI agonist, primary screen (AID 2013).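 Further: antagonist potency measured as reduced agonist-driven arrestin aggregation.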 Format: functional.
Assay [6] has as its system Streptococcus. Briefly: GAS UMAA2166 growth inhibition – luminescence, BacTiterGlo, counter-screen for streptokinase expression inhibitor project, dose response (AID 1915).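 Further: potency for reduction of bacterial viability or growth.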 In kind it is functional, organism-based. A general note: Counterscreens check selectivity or assay interference.
Assay [7] addresses T3, Streptokinase A (Streptococcus pyogenes serotype M1, UniProt P10520).
T3 sequence (P10520 whole entry): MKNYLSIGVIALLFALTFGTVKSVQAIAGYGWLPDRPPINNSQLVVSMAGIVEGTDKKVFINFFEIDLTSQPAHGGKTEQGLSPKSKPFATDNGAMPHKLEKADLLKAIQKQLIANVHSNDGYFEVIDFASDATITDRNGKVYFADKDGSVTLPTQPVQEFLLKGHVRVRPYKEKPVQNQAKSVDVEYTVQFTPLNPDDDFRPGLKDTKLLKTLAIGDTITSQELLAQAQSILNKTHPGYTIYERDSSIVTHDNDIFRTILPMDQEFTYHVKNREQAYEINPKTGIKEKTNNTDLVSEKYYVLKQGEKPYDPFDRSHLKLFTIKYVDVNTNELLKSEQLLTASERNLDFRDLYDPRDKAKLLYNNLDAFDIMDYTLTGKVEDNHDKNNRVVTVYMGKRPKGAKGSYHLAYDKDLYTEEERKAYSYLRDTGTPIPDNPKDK
Briefly: viability-normalized secreted streptokinase activity reduction – plasminogen activation absorbance, OD405, dose response (AID 1914).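 Further: secreted streptokinase activity via plasminogen activation per viability signal from cell pellet.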 Format: functional, Streptococcus pyogenes M1 GAS.

Active and inactive are the calls of the source.

Cytochrome P450 3A4, sequence (P08684 whole entry): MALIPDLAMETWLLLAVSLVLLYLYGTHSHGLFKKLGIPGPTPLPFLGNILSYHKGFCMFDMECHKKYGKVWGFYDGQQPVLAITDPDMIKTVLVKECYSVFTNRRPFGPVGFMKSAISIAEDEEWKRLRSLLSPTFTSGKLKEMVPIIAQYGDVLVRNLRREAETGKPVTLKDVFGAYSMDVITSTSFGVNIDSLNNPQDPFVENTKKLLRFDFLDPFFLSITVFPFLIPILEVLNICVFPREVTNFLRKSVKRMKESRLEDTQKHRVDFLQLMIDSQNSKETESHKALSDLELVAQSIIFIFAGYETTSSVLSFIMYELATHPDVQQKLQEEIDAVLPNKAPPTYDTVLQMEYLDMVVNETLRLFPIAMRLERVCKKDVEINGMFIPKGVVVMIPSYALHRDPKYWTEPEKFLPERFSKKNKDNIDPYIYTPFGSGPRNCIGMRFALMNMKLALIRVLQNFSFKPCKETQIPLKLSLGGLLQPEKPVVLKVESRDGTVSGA
G-protein coupled receptor 55, sequence (Q9Y2T6 whole entry): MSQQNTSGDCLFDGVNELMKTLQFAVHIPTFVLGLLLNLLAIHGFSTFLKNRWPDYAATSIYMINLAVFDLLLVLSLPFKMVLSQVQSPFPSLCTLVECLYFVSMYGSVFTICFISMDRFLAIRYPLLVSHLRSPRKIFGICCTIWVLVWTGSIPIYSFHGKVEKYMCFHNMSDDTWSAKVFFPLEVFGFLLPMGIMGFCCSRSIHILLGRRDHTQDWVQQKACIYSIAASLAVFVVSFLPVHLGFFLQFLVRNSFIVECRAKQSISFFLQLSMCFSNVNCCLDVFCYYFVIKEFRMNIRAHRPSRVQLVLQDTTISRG

With `CCCn1c(-c2ccc(F)cc2)nc2c(N(C)CCN(C)C)nc(C)nc21`, the AC50 in assay [1] was 25.1 µM (inconclusive).
On the same count and under the same terms, under `CC1(C)C2(Cl)C(Cl)C(Cl)C(Cl)(C(Cl)Cl)C1(Cl)C2Cl` (stereo not drawn) [STROBANE] stands 15.8 µM (inconclusive).
For `COC(=O)c1ccc(CN2[C@H](C(=O)OC)C[C@@]3(O)[C@H](O)[C@H](O)[C@H](O)C[C@@H]23)cc1`, in assay [1], the AC50 was 12.6 µM (inconclusive).
`CCCCC(CC)COCCCN` (stereo not drawn): in assay [1], the AC50 is 31.6 µM (inconclusive).
Consider `O=S(=O)(Nc1ccc(O)c2ccccc12)c1ccc(F)cc1`, for which, in assay [2], the AC50 is 0.214 µM (active). Further, the EC50 in assay [3] is 0.0466 µM (active). Moreover, the CC50 in assay [4] is > 40 µM (active).
In the case of `COC(=O)c1c(NC(NC(=O)C(C)(C)C)C(Cl)(Cl)Cl)sc2c1CCC2` (stereo not drawn), the IC50 in assay [5] is 2.01 µM (active). Besides, the EC50 in assay [6] was 20.3 µM (active); in assay [7], 2.8 µM (active).
For `COc1ccc(CNCc2cc3c(C(C)(C)C)nn(-c4ccccc4)c3[nH]c2=O)cc1`, the IC50 in assay [5] is 2.18 µM (active).
Regarding `COC(=O)[C@@]1(C)C[C@@H]1[C@@H](NC(=O)[C@@]1(C)C[C@@H]1[C@@H](NC(=O)[C@@]1(C)C[C@@H]1[C@@H](NC(=O)[C@@]1(C)C[C@@H]1[C@@H](NC(=O)OCc1ccccc1)c1ccccc1)c1ccccc1)c1ccccc1)c1ccccc1`, in assay [1], the AC50 is 0.2 µM (inconclusive).
The same measure, in the same setting: to `COc1c(O)cc2c(-c3ccccc3)cc(=O)oc2c1OC` [KUHLMANNIN] belongs 31.6 µM (inconclusive).
